The values below come from patent US9676780B2, “Piperazine-substituted [1,2,4]triazolo[1,5-C]quinazolin-5-amine compounds with A2A antagonist properties” (MERCK SHARP & DOHME CORP., priority 2012, dated 2017).

T1 sequence (P29274 whole entry): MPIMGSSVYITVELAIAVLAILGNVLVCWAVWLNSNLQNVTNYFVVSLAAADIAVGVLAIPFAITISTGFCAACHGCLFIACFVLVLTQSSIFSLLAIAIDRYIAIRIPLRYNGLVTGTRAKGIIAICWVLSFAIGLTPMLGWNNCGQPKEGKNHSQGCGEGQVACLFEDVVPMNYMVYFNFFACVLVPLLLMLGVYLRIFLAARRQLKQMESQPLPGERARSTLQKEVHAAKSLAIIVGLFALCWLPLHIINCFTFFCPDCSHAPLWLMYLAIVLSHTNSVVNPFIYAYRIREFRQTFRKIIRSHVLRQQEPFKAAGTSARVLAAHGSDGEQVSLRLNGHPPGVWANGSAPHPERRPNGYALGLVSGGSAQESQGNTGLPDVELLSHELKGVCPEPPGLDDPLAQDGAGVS

The first assay addresses T1, human A2a receptor (Homo sapiens, UniProt P29274).
T1 construct: purchased Perkin-Elmer RBHA2AM400UA; host or cells: HEK293
The assay can be described thus: A2a receptor competition binding assay (Scintillation Proximity, tritiated radioligand). As to conditions: A2a EC50, membranes from HEK293 cells expressing the human A2a receptor; 0.5 nM tritiated ligand; SPA beads; one hour at room temperature. Here is the method:
Binding affinities of compounds of the invention for the human A2a receptor were determined in a competition binding assay using Scintillation Proximity technology. […] The beads were then allowed to settle to the bottom of the wells for 1 hr, after which the membrane-associated radioactivity was determined by scintillation counting in a TopCount microplate reader. Ki values were determined using the Cheng-Prusoff equation.
• HEK293 cells expressing the human, rat, dog or monkey adenosine 2a receptor (Purchased from Perkin-Elmer # RBHA2AM400UA). • The Tritiated compound was prepared in-house by MRL Radiochemistry according to published methods. • Wheatgerm agglutinin-coated yttrium silicate SPA beads (GE Healthcare #RPNQ0023). […] This is a 2.5× solution. The final concentration in the assay is 0.5 nM. Calculate the concentration by counting two 5 ul aliquots. Membrane Preparation • Use 0.25 ug of membrane/well. Dilute membranes to 9.7 ug/ml in assay buffer. Treat with 20 ug/ml adenosine deaminase (ADA) for 15 minutes at room temperature to degrade endogenous adenosine. Membrane-Bead Mixture • Use 100 ug/well wheatgerm agglutinin-coated yttrium silicate SPA beads. • Mix ADA-treated membranes and SPA beads together for 30 min prior to assay. […] Incubate for one hour at room temperature with agitation. • Include total binding (assay buffer+1% DMSO) and non-specific binding (CGS15943, 1 uM) wells. Counting • Allow the beads to settle for one hour. • Count in TopCount. Calculations • A curve fitting program (i.e., Prism, Activity Base, Chemcart) is used to determine the EC50.
The Ki value is calculated using the Cheng-Prusoff equation. Ki=EC50/(1+(radioligand concentration/Kd))
As usually defined, the EC50 is the concentration needed to bring the measured effect to its halfway point. As for `COc1cccc2c1nc(N)n1nc(CN3C4CCC3C3CCC4N3c3ccc(C(F)(F)F)cn3)nc21` [Ex-205], the EC50 was 4.1 nM.

Turning to `COc1cc(F)cc2c1nc(N)n1nc(CN3C4CCC3CN(Cc3ccccc3)C4)nc21` [Ex-206], the midpoint of the response, the EC50, lay at 30.9 nM.

The assay is the same for the next values; noted with them: membranes from HEK293 cells expressing the human A2a receptor; 0.5 nM tritiated ligand; SPA beads; one hour at room temperature; read-out: A2a EC50.
As to `COc1cccc2c1nc(N)n1nc(CN3CCN(c4ccc(C(F)(F)F)c(C(F)(F)F)c4)CC3C)nc21` (stereo not drawn) [Ex-117], the EC50 was determined as 12.7 nM.

On to `COc1cccc2c1nc(N)n1nc(CN3CCN(Cc4nc5ccncc5n4C)CC3C)nc21` (stereo not drawn) [Ex-13], for which the EC50 came to 87.1 nM.

Turning to `COc1cc(F)cc2c1nc(N)n1nc(CN3CCN(c4ccc(F)cc4)CC3C)nc21` (stereo not drawn) [Ex-37], the 50% effective concentration (EC50) worked out at 48.9 nM.

For `COc1cccc2c1nc(N)n1nc(CN3CCN(c4noc(=O)[nH]4)CC3C)nc21` (stereo not drawn) [Ex-82], the concentration giving a half-maximal response (EC50) was 628 nM.

Turning to `COc1cccc2c1nc(N)n1nc(CN3CCN(Cc4ccc(F)c(F)c4)CC3C)nc21` (stereo not drawn) [Ex-23], the EC50 worked out at 17.7 nM.

Turning to `COc1cccc2c1nc(N)n1nc(CN3CCN(c4cnccc4C)CC3C)nc21` (stereo not drawn) [Ex-144], the EC50 turned out to be 20.1 nM.

As for `COc1cccc2c1nc(N)n1nc(CN3CCN(c4cccc(N(C)C)c4)CC3C)nc21` (stereo not drawn) [Ex-126], the EC50 came out at 2.39 nM.

Regarding `COc1cccc2c1nc(N)n1nc(CN3CCN(c4ncc(F)cc4F)CC3C)nc21` (stereo not drawn) [Ex-122], the EC50 is 4.86 nM.

In the case of `COc1cccc2c1nc(N)n1nc(CN3CCN(c4cc(F)cc(F)c4)CC3C)nc21` (stereo not drawn) [Ex-106], the EC50 came to 4.73 nM.

As for `COc1cccc2c1nc(N)n1nc(CN3CCN(Cc4ccc(F)c(C)c4)CC3C)nc21` (stereo not drawn) [Ex-28], the EC50 stood at 15.6 nM.

Consider `COc1cccc2c1nc(N)n1nc(CN3CCN(Cc4ccc(N5CCCC5=O)cc4)CC3C)nc21` (stereo not drawn) [Ex-33], for which the EC50 was determined as 35.9 nM.

Turning to `COc1cccc2c1nc(N)n1nc(CN3CCN(c4cc(Cl)cc(Cl)c4)CC3C)nc21` (stereo not drawn) [Ex-124], the EC50 was found to be 2.82 nM.

As to `COc1cccc2c1nc(N)n1nc(CN3CCN(C(=O)OC(C)(C)C)CC3C(F)(F)F)nc21` (stereo not drawn) [Ex-171], the EC50 stood at 30.4 nM.

For the molecule `COc1cccc2c1nc(N)n1nc(CCN3CCN(c4ccc(F)cn4)CC3)nc21` [Ex-164], the EC50 came to 2.5 nM.

For the molecule `COc1ccc(Cl)c(N2CCN(Cc3nc4c5cccc(OC)c5nc(N)n4n3)C(C)C2)c1` (stereo not drawn) [Ex-121], the EC50 was 13.2 nM.

Take `COc1cccc2c1nc(N)n1nc(CN3CCN(Cc4cccc(C)n4)CC3C)nc21` (stereo not drawn) [Ex-18]: the EC50 came to 26.9 nM.

Regarding `COc1cccc2c1nc(N)n1nc(CN3CCN(c4nc(C(C)(C)C)no4)CC3C)nc21` (stereo not drawn) [Ex-91], the EC50 was 42.2 nM.

`COc1cccc2c1nc(N)n1nc(CN3CCN(c4ccc5c(c4)c(C)nn5C)CC3C)nc21` (stereo not drawn) [Ex-128]: the EC50 turned out to be 0.964 nM.

For `COc1cccc2c1nc(N)n1nc(CN3CCN(c4noc(C5CC5)n4)CC3C)nc21` (stereo not drawn) [Ex-53], the EC50 was found to be 15.9 nM.

For the molecule `COc1cccc2c1nc(N)n1nc(CN3CCN(Cc4ccc(C)cc4)C(=O)C3)nc21` [Ex-210], the concentration for a half-maximal effect (EC50) is 7.7 nM.

For `COc1cccc2c1nc(N)n1nc(CN3CCN(c4ccc(C(F)(F)F)cc4)CC3C)nc21` (stereo not drawn) [Ex-48], the EC50 is 18.2 nM.

Take `COc1cccc2c1nc(N)n1nc(CN3CCN(c4cc(C(F)(F)F)cc(C(F)(F)F)c4)CC3C)nc21` (stereo not drawn) [Ex-120]: the EC50 was 20.7 nM.

Turning to `COc1cccc2c1nc(N)n1nc(CN3CCN(c4cccc(S(C)(=O)=O)c4)CC3C)nc21` (stereo not drawn) [Ex-143], the EC50 was 13.9 nM.

Regarding `COc1cccc2c1nc(N)n1nc(CN3CCN(C(C)c4ccc(F)cc4F)CC3C)nc21` (stereo not drawn) [Ex-93], the EC50 worked out at 4.6 nM.

As to `COc1ccc(CN2CCN(Cc3nc4c5cccc(OC)c5nc(N)n4n3)CC2=O)cc1` [Ex-209], the EC50 stood at 9.4 nM.

For the molecule `COc1cc(N2CCN(Cc3nc4c5cccc(OC)c5nc(N)n4n3)C(C)C2)ccn1` (stereo not drawn) [Ex-105], the EC50 stood at 16.8 nM.

As for `COc1cccc2c1nc(N)n1nc(CN3CCN(c4cc(C(F)F)ccn4)CC3C)nc21` (stereo not drawn) [Ex-123], the EC50 came to 4.25 nM.

`COc1cccc2c1nc(N)n1nc(CN3CCN(Cc4cccc(Oc5ccccc5)c4)CC3C)nc21` (stereo not drawn) [Ex-22]: the concentration giving a half-maximal response (EC50) was determined as 10 nM.

For `COc1cccc2c1nc(N)n1nc(CCN3CCN(c4ncc(F)cn4)CC3)nc21` [Ex-163], the EC50 was 7.8 nM.

On to `COc1cccc2c1nc(N)n1nc(C(C)N3CCN(c4ccc(F)cc4)C[C@H]3C)nc21` (stereo partly drawn) [Ex-50, 2-{1-[(2R)-4-(4-fluorophenyl)-2-methylpiperazin-1-yl]ethyl}-7-methoxy[1,2,4]triazolo[1,5-c]quinazolin-5-amine], for which the EC50 came to 139 nM.

On to `COc1cccc2c1nc(N)n1nc(CN3CCN(c4ccc(F)cc4)CC3(C)C)nc21` [Ex-183], for which the EC50 was found to be 5 nM.

With `COc1cccc2c1nc(N)n1nc(CN3CCN(c4ccccc4Cl)CC3C)nc21` (stereo not drawn) [Ex-58], the 50% effective concentration (EC50) is 12.4 nM.

As for `CC[C@@H]1CN(c2ccc(F)cc2)CCN1Cc1nc2c3cccc(OC)c3nc(N)n2n1` [Ex-45], the EC50 is 5.7 nM.

With `COc1cc(N2CCN(Cc3nc4c5cccc(OC)c5nc(N)n4n3)C(C)C2)ccc1Cl` (stereo not drawn) [Ex-125], the EC50 is 1.03 nM.

With `COc1cc(F)cc2c1nc(N)n1nc(CN3CCN(c4ccc(C(F)(F)F)cn4)CC3C)nc21` (stereo not drawn) [Ex-42], the EC50 turned out to be 28.3 nM.

As to `COc1cccc2c1nc(N)n1nc(C(C)N3CCN(c4ccc(F)cc4)CC3C)nc21` (stereo not drawn) [Ex-49], the EC50 was found to be 4.9 nM.

Consider `COc1cccc2c1nc(N)n1nc(CN3CCN(c4ccc(C#N)cn4)CC3C)nc21` (stereo not drawn) [Ex-137], for which the EC50 turned out to be 20.6 nM.

Regarding `COc1cccc2c1nc(N)n1nc(CN3CCN(CCF)CC34CC4)nc21` [Ex-192], the EC50 is 153 nM.

With `COCc1c2cc(N3CCN(Cc4nc5c6cccc(OC)c6nc(N)n5n4)C(C)C3)ccc2nn1C` (stereo not drawn) [Ex-141], the EC50 came to 2.34 nM.

As to `COc1cccc2c1nc(N)n1nc(CN3CCN(c4cccc(C(F)(F)F)c4)C[C@H]3C)nc21` [Ex-55], the EC50 was determined as 5.2 nM.

Consider `COc1cccc2c1nc(N)n1nc(CN3CCN(c4cccc(C#N)c4)CC3C)nc21` (stereo not drawn) [Ex-60], for which the EC50 came out at 18.8 nM.

Regarding `COc1cccc2c1nc(N)n1nc(CN3CCN(c4ccncc4C(F)(F)F)CC3C)nc21` (stereo not drawn) [Ex-100], the EC50 came out at 29.4 nM.

With `COc1cccc2c1nc(N)n1nc(CN3CCN(c4ccccn4)CC3)nc21` [Ex-170], the EC50 was determined as 157 nM.

As for `COc1cccc2c1nc(N)n1nc(CN3CCN(Cc4c(C)nc5scnn45)CC3C)nc21` (stereo not drawn) [Ex-15], the EC50 amounted to 8.1 nM.

For the molecule `COc1cccc2c1nc(N)n1nc(CN3CCN(c4noc(C(C)(C)C)n4)CC3C)nc21` (stereo not drawn) [Ex-88], the EC50 worked out at 22.2 nM.

Turning to `COc1cccc2c1nc(N)n1nc(CN3CCN(c4ccccc4C)CC3C)nc21` (stereo not drawn) [Ex-64], the EC50 amounted to 13.1 nM.

Regarding `COc1cccc2c1nc(N)n1nc(CN3CCN(C(=O)c4nc(C5CC5)no4)CC3C)nc21` (stereo not drawn) [Ex-90], the concentration for a half-maximal effect (EC50) was 53.5 nM.

With `COc1cccc2c1nc(N)n1nc(CN3CCN(c4ccc(C(F)(F)F)cn4)CC3C)nc21` (stereo not drawn) [Ex-40], the 50% effective concentration (EC50) was found to be 22.6 nM.

`COCCN1CCN(Cc2nc3c4cccc(OC)c4nc(N)n3n2)C2(CC2)C1` [Ex-193]: the EC50 turned out to be 128 nM.

Regarding `COc1cccc2c1nc(N)n1nc(CN3CCN(c4ncns4)CC3C)nc21` (stereo not drawn) [Ex-89], the EC50 is 72.2 nM.

Consider `COc1cccc2c1nc(N)n1nc(CN3CCN(Cc4ccc(N(C)C)cc4)CC3C)nc21` (stereo not drawn) [Ex-32], for which the EC50 is 78.3 nM.

As to `COc1cc(CN2CCN(Cc3nc4c5cccc(OC)c5nc(N)n4n3)C(C)C2)cc(OC)c1` (stereo not drawn) [Ex-20], the EC50 turned out to be 51.7 nM.

In the case of `COCCOc1cccc(N2CCN(Cc3nc4c5cccc(OC)c5nc(N)n4n3)C3(CC3)C2)c1` [Ex-190], the EC50 was 6.7 nM.

As for `COc1cccc2c1nc(N)n1nc(CN3CCN(c4cc(F)cc(Cl)c4)CC3C)nc21` (stereo not drawn) [Ex-101], the EC50 was 4.95 nM.

Turning to `CCc1nc(N2CCN(Cc3nc4c5cccc(OC)c5nc(N)n4n3)C(C)C2)no1` (stereo not drawn) [Ex-87], the EC50 stood at 21.5 nM.

Consider `COc1cccc2c1nc(N)n1nc(CN3CCN(C(=O)c4ccc(C(F)(F)F)cc4)CC3(C)C)nc21` [Ex-200], for which the half-maximal effective concentration (EC50) is 15.6 nM.

In the case of `COc1cccc2c1nc(N)n1nc(CCCN3CCN(c4ccccn4)CC3)nc21` [Ex-158], the EC50 was 7.1 nM.

As for `COc1cccc2c1nc(N)n1nc(CN3CCN(c4nsnc4OCCO)CC3C)nc21` (stereo not drawn) [Ex-109], the 50% effective concentration (EC50) was 4.66 nM.

As for `COc1cc(F)cc2c1nc(N)n1nc(CN3CCN(c4ccc(F)cc4)CC3C)nc21` (stereo not drawn) [Ex-11], the EC50 was 7.68 nM.

In the case of `COc1cccc2c1nc(N)n1nc(CN3CCN(c4nncs4)CC3C)nc21` (stereo not drawn) [Ex-75], the EC50 was 47.4 nM.

In the case of `COc1cccc2c1nc(N)n1nc(CN3[C@H](C)CN(C(=O)c4ccc(F)cc4)C[C@@H]3C)nc21` [Ex-201], the EC50 amounted to 50.2 nM.
